System: HepG2 PCSK9 mRNA, RT-qPCR, 24 h
Experiment: cholesterol-dependence of PCSK9 transcript levels – cell-based, HepG2, RT-PCR, cherry-picked dose, mechanism study for Trib1 inducer project, late-stage follow-up (AID 1053162)
Settings: stronger effect = higher value

`CN1C(=O)c2cc(NC(=O)c3ccc(C(F)(F)F)cc3)ccc2OC[C@@H]2O[C@H](CC(=O)NC3Cc4ccccc4C3)CC[C@@H]21` gave a fold induction of 2.5.

— PubChem BioAssay AID1053162 (Broad Institute, 2014)
